Data as given in patent US5250679A, “Nonpeptidyl platelet aggregation inhibitors having specificity for the GPIIb III receptor” (Genentech, Inc., priority 1992, dated 1993).
Where a name gives a salt, the structure may show the parent alone. Read-outs that look alike come from different tables or passages of the source.

Legend:
GP IIb IIIa = molecular target: T1, GP IIb IIIa (Homo sapiens, UniProt P05106+P08514); assay: Fibrinogen-GP IIb IIIa Receptor ELISA Binding Assay (Fg/IIbIIIa)
T1 construct: from tissue; host or cells: outdated human platelets
T1 sequence (P08514 32-887 limits assumed): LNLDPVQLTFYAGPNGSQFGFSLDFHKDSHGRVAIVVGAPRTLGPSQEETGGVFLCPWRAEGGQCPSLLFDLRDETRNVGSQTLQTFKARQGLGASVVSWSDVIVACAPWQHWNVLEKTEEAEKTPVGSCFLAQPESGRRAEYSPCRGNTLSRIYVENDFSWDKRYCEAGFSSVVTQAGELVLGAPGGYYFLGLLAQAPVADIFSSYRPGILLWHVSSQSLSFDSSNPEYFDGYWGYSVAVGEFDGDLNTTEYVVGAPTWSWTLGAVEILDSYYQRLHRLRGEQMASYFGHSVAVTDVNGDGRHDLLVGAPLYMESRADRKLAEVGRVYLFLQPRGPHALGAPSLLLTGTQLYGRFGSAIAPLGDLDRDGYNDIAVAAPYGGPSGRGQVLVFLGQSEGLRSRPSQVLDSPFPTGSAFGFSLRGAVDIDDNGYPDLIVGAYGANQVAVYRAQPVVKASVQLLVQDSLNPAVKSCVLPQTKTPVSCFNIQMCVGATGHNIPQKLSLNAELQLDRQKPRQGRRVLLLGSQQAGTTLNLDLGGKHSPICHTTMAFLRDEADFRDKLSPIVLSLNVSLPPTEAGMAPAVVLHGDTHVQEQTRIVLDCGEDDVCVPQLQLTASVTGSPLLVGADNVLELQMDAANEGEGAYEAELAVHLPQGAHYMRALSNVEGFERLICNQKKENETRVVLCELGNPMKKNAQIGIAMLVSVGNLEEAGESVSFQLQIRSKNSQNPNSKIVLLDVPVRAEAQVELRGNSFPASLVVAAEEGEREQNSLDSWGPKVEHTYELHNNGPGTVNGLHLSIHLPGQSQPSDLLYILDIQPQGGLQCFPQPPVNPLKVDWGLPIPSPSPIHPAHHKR
T1 sequence (P08514 891-1039 partner limits assumed): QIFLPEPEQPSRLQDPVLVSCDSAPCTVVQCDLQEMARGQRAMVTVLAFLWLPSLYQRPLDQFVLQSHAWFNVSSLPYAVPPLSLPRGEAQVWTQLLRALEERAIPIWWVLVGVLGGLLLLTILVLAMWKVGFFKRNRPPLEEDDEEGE
T1 sequence (P05106 27-788): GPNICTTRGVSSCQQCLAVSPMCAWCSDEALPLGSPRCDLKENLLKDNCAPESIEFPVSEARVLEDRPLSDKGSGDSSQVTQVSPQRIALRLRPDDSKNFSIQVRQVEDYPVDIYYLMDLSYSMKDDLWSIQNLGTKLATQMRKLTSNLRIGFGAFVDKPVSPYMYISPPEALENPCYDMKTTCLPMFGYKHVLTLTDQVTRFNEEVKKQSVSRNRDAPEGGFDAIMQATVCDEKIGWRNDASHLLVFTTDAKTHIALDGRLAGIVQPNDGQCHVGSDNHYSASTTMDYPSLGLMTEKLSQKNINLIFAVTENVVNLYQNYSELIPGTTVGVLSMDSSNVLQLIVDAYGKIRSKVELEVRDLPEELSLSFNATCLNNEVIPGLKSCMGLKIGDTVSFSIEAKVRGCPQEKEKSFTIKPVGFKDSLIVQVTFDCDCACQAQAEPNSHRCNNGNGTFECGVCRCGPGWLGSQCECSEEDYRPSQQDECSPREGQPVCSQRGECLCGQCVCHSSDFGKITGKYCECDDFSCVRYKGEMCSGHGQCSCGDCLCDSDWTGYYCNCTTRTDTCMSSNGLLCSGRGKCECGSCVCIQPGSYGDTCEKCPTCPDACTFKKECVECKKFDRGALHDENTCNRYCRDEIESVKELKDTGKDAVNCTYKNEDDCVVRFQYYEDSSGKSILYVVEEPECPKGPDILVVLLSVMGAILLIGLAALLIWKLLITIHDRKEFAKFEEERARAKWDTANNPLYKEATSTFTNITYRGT
How it was run: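 Purified human platelet GP IIb IIIa binding to immobilised purified fibrinogen was run with compound at room temperature for 1 h. IC50 values were determined.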

[1] = test system: human platelet rich plasma (PRP); assay: In Vitro Human Platelet Aggregation Assay (PA); format: cell-based; details: Homo sapiens, Platelet
Protocol: In addition to the GPIIb IIIa ELISA assay, platelet aggregation assays may be performed in human platelet rich plasma (PRP). […] The blood is centrifuged at 160×g for 10 min at 22° C. and then allowed to stand for 5 min after which the PRP is decanted. Platelet poor plasma (PPP) is isolated from the remaining blood after centrifugation at 2000×g for 25 min. The platelet count of the PRP is adjusted to ca. 300,000 per microliter with PPP.
A 225 mL aliquot of PRP plus 25 mL of either a dilution of the test sample or a control (PBS) is incubated for 5 min in a Chrono-log Whole Blood Aggregometer at 25° C. An aggregating agent (collagen, 1 mg/ml; U46619, 100 ng/ml; or ADP, 8 mM) is added and the platelet aggregation recorded.
Platelet aggregation assays are performed in human platelet rich plasma (PRP). […] The blood is centrifuged at 160×g for 10 minutes at 22° C. and allowed to stand for 5 minutes after which the PRP is decanted. Platelet poor plasma (PPP) is isolated from the remaining blood after centrifugation at 2000×g for 25 minutes. The platelet count of the PRP is diluted to about 300,000 platelets per microliter with PPP.
A 225 ml aliquot of PRP plus 25 ml of either a dilution of the test inhibitor sample or a control (PBS) is incubated for 5 minutes in a Chrono-log Whole Blood Aggregometer at 25° C. An aggregating agent (collagen, 1 mg/ml; U46619, 100 ng/ml; or ADP, 17 mM) is added and the transmission is recorded.

[2] = molecular target: T2, Human Vitronectin receptor (av b3) (Homo sapiens, UniProt P05106+P06756); assay: Human Vitronectin-Vitronectin Receptor (av b3) ELISA Assay (Vn/VnR); format: binding; details: Example 30, G # table
T2 construct: is purified from human placenta; from tissue; host or cells: human placenta
T2 sequence (P06756 31-889 limits assumed): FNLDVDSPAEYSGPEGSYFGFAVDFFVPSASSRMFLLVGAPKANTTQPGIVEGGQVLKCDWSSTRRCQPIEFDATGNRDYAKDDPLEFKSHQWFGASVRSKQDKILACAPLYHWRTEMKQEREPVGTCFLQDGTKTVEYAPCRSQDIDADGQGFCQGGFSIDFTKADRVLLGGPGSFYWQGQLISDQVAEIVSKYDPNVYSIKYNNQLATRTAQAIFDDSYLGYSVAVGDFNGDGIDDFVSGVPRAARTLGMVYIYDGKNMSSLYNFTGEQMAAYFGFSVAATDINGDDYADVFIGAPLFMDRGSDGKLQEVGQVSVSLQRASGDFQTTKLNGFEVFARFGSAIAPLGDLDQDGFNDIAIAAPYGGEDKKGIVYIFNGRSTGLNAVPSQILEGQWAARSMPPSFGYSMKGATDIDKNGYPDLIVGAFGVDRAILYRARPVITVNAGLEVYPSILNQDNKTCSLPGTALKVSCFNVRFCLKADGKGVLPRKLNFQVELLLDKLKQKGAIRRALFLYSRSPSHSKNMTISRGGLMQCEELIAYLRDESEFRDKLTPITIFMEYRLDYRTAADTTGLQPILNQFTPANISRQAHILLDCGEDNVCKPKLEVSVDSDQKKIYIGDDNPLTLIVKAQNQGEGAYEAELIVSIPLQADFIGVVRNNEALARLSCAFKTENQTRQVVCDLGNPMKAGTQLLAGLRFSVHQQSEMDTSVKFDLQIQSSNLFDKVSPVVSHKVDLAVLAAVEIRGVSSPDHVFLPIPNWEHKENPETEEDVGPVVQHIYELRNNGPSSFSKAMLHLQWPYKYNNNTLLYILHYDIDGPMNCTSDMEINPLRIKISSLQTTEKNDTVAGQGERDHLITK
T2 sequence (P06756 891-1048 partner limits assumed): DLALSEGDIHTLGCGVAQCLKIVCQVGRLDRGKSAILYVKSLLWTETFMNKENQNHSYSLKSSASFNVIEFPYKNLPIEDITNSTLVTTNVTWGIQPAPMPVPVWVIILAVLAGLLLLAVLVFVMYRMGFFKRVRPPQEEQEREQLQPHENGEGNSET
T2 sequence (P05106 27-788): as the sequence (P05106 27-788) above
Description: Human vitronectin (Vn) is isolated from human plasma and purified by affinity chromatography by the method of Yatohgo et. al., (Cell Structure and Function 13: 281-292 [1988]).
Human vitronection receptor (VnR) is purified from human placenta by the method of Pytela et al., (Methods Enzymol., 144: 475 [1987]). Alternatively the av b3 receptor can be purified from some cell lines (e.g., human embryonic kidney 293 cells) transfected with DNA sequences for both the av and b3 subunits. The subunits are purified by employing octylglucoside extraction followed by Con-A, Heparin-Sepharose, and S-300 Chromatography.
This mouse Mab is specific for the b3 subunit of the vitronectin receptor.
Rabbit Fab 2 anti-mouse Fc fragment horse radish peroxidase conjugate (anti-MuFc HRP) is obtained from PelFreeze (cat. no. 715305-1).
Maxisorp microtiter plates are coated with 2 mg/ml human vitronectin dissolved in PBS (50 ml/well) and stored overnight at 4° C. The plates are washed two times with PBS-0.05% Tween-20 (wash buffer) and blocked by incubating with about 150 ml/well of assay buffer (1%, BSA [RIA grade or better] in 50 mM Tris-HCl, 100 mM NaCl, 1 mM MgCl2, CaCl2, MnCl2 pH 7.4) for 60 minutes. […] The blocked plates are emptied and 25 ml/well of inhibitor or standard solution is added to each well. Twenty-five ml of a 30 mg/ml solution of purified av b3 in assay buffer is pipetted into the coated plate. The final concentration of receptor in the assay well is about 15 mg/ml. The plate is incubated on a shaker for 60 minutes. Meanwhile, for each microtite plate, 6 ml buffer solution containing 1.5 mg/ml of mouse monoclonal antibody specific for b3 is prepared. To this solution is added ml of the secondary antibody, which is anti-mouse-Fc-HRP antibody conjugate. For example, for one plate, prepare 6 ml of a 1.5 mg/ml mouse Mab solution to which is added 1 ml of anti-mouse-Fc-HRP antibody stock, (this represents a 1:6000 dilution of the antibody-HRP conjugate). This mixture is allowed to incubate during the receptor-inhibitor incubation. The assay plates are washed 4 times with PBS-Tween and 50 ml/well of the antibody mixture is then pipetted into the plate for a 60 minute incubation. The plate is washed 4 times and the color reaction is developed with 50 ml/well of 0.67 mg/ml o-phenyldiamine in PBS containing 0.012% H2 O2. Alternatively, 16 mM citric acid, 50 mM Na2 PO4 at pH 5.0 can be used as a substrate buffer. The reaction is stopped with 50 ml/well 1 M H2 SO4. The plates are read at 492-405 nm and the data analyzed by four-parameter fit.

[3] = Example 29, Cmpd # 1-105, read-out: IC50 Fg/IIbI
[4] = Example 30, G # table, read-out: IC50 (μM) Fg/IIbIIIa
[5] = citrate, read-out: PA IC50 (μM) (citrate)
[6] = Examples 29 and 30, Cmpd # tables, read-out: IC50 (μM) Fg/IIbIIIa

N=C(N)NCCCc1ccc2c(c1)C(=O)N(CCC(=O)O)CC(=O)N2 [Cmpd 2]
IC50 (GP IIb IIIa; [3]): 0.714 µM
IC50 (GP IIb IIIa; [4]): 0.714 µM
IC50 [1, 5]: > 5 µM
IC50 [2]: > 10 µM

CN1C(=O)CN(CCC(=O)O)C(=O)c2cc(C#CCCNC(=N)N)ccc21 [Cmpd 22]
IC50 (GP IIb IIIa; [3]): 0.14 µM
IC50 (GP IIb IIIa; [4]): 0.14 µM
IC50 [1, 5]: 8.96 µM
IC50 [2]: > 10 µM

CN1C(=O)CN(CCC(=O)O)C(=O)c2cc(C#CCCCNC(=N)N)ccc21 [Cmpd 34, 1-methyl-4-(2-carboxyethyl)-7-(5-guanidino-1-pentynyl)-3,4-dihydro-1H-1,4-benzodiazepine-2,5-dione trifluroacetate]
IC50 (GP IIb IIIa; [3]): 0.0036 µM
IC50 (GP IIb IIIa; [4]): 0.0036 µM
IC50 [1, 5]: 3.1 µM
IC50 ([1]; heparin, read-out: PA IC50 (μM) (heparin)): 7.5 µM
IC50 [2]: > 10 µM

COc1ccc(CN2C(=O)CN(CCC(=O)O)C(=O)c3cc(CCCCCCNC(=N)N)ccc32)cc1 [Cmpd 84, 1-(p-methoxybenzyl)-4-(2-carboxyethyl)-7-(6-guanidinohexyl)-3,4-dihydro-1H-1,4-benzodiazepine-2,5-dione trifluoroacetate]
IC50 (GP IIb IIIa; [3]): 0.024 µM
IC50 (GP IIb IIIa; [4]): 0.024 µM
IC50 [1, 5]: 10.4 µM

N=C(N)NCCCCCCc1ccc2c(c1)C(=O)N(CCC(=O)O)CC(=O)N2Cc1cccc2ccccc12 [Cmpd 85, 1-(1-napthyl)methyl-4-(2-carboxyethyl)-7-(6-guanidinohexyl)-3,4-dihydro-1H-1,4-benzodiazepine-2,5-dione trifluoroacetate]
IC50 (GP IIb IIIa; [3]): 0.014 µM
IC50 (GP IIb IIIa; [4]): 0.014 µM
IC50 [1, 5]: 6.2 µM

NCCCCCCc1ccc2c(c1)C(=O)N(CCC(=O)O)CC(=O)N2Cc1cccc(NC(=O)CCCN)c1 [Cmpd 112, 1-[3-(N-(4-aminobuturyl))aminophenyl]methyl-4-(2-carboxyethyl)-7-(6-aminohexyl)-3,4-dihydro-1H-1,4-benzodiazapine-2,5-dione bistrifluoroacetate]
IC50 (GP IIb IIIa; [4]): 0.008 µM
IC50 (GP IIb IIIa; [6]): 0.008 µM
IC50 [1, 5]: 0.4 µM

N=C(N)NCCCCCCc1ccc2c(c1)C(=O)N(CCC(=O)O)CC(=O)N2Cc1cccc(NC(=O)CCCNC(=N)N)c1 [Cmpd 113]
IC50 (GP IIb IIIa; [4]): 0.01 µM
IC50 (GP IIb IIIa; [6]): 0.01 µM
IC50 [1, 5]: 0.87 µM

NCCCCCCc1ccc2c(c1)C(=O)N(CCC(=O)O)CC(=O)N2Cc1cccc(NC(=O)CCCCN)c1 [Cmpd 114]
IC50 (GP IIb IIIa; [4]): 0.008 µM
IC50 (GP IIb IIIa; [6]): 0.008 µM
IC50 [1, 5]: 0.31 µM

N=C(N)NCCCCCCc1ccc2c(c1)C(=O)N(CCC(=O)O)CC(=O)N2Cc1cccc(NC(=O)CCCCNC(=N)N)c1 [Cmpd 115]
IC50 (GP IIb IIIa; [4]): 0.018 µM
IC50 (GP IIb IIIa; [6]): 0.013 µM
IC50 [1, 5]: 0.92 µM

NCCCCCCc1ccc2c(c1)C(=O)N(CCC(=O)O)CC(=O)N2Cc1cccc(NC(=O)CCCCCN)c1 [Cmpd 116]
IC50 (GP IIb IIIa; [4]): 0.011 µM
IC50 (GP IIb IIIa; [6]): 0.011 µM
IC50 [1, 5]: 0.27 µM

N=C(N)NCCCCCCc1ccc2c(c1)C(=O)N(CCC(=O)O)CC(=O)N2Cc1cccc(NC(=O)CCCCCNC(=N)N)c1 [Cmpd 117]
IC50 (GP IIb IIIa; [4]): 0.013 µM
IC50 (GP IIb IIIa; [6]): 0.013 µM
IC50 [1, 5]: 0.64 µM

NCCCCCCc1ccc2c(c1)C(=O)N(CCC(=O)O)CC(=O)N2Cc1cccc(N)c1 [Cmpd 122]
IC50 (GP IIb IIIa; [4]): 0.01 µM
IC50 (GP IIb IIIa; [6]): 0.012 µM
IC50 [1, 5]: 0.49 µM

CCCCC(=O)Nc1cccc(CN2C(=O)CN(CCC(=O)O)C(=O)c3cc(CCCCCCN)ccc32)c1 [Cmpd 123]
IC50 (GP IIb IIIa; [4]): 0.015 µM
IC50 (GP IIb IIIa; [6]): 0.015 µM
IC50 [1, 5]: 0.64 µM

CCCCC(=O)Nc1cccc(CN2C(=O)CN(CCC(=O)O)C(=O)c3cc(CCCCCCNC(=N)N)ccc32)c1 [Cmpd 124]
IC50 (GP IIb IIIa; [4]): 0.012 µM
IC50 (GP IIb IIIa; [6]): 0.012 µM
IC50 [1, 5]: 2.76 µM

N=C(N)Nc1ccc(C(=O)Nc2cccc(CN3C(=O)CN(CCC(=O)O)C(=O)c4cc(CCCCCCN)ccc43)c2)cc1 [Cmpd 127, 1-(3-(4-guanidinobenzoyl)aminophenyl)methyl-4-(2-carboxyethyl)-7-(6-aminohexyl)-3,4-dihydro-1H-1,4-benzodiazapine-2,5-dione]
IC50 (GP IIb IIIa; [4]): 0.008 µM
IC50 (GP IIb IIIa; [6]): 0.008 µM
IC50 [1, 5]: 0.35 µM
